{"source": "paper PMC12903969", "about": "“Discovery of a Novel and Potent Kir4.1 Inhibitor as a Safe and Rapid‐Onset Antidepressant Agent in Mice” (Advanced Science, 2025)", "key": {"Kir2.2": {"target": "T1, Kir2.2 (Homo sapiens, UniProt Q14500)", "T1 construct": "host or cells: CHO-K1", "assay": "Whole-cell patch clamp, Kir2.2", "format": "cell-based", "conditions": "mean ± SEM", "experimental": "(§1) Plasmids encoding WT human potassium channels Kir1.1, Kir2.1, Kir2.2, Kir4.1, and Kir4.2 were obtained from the Beijing Genomics Institute. All point mutations were constructed using the QuickChange II Site‐Directed Mutagenesis Kit (Stratagene) and subsequently verified by sequencing.\nCHO‐K1 cells were maintained in DMEM/F12 growth medium containing 10% fetal bovine serum. Plasmids encoding the target genes (3600 ng) and enhanced green fluorescent protein (400 ng) were cotransfected into cells using Lipofectamine 2000 (Invitrogen) in accordance with the manufacturer's instructions. Cells were seeded onto poly‐d‐lysine (PDL)‐coated glass coverslips 1 h prior to electrophysiological recordings. […]\nWhole‐cell patch‐clamp recordings were obtained either in transiently transfected CHO‐K1 cells or in primary cultured astrocytes at room temperature using standard patch‐clamp techniques with an Axopatch‐700B amplifier (Axon Instruments). […] Macroscopic currents generated by expressed potassium channels were recorded under the voltage‐clamp conditions with an internal pipette solution composed of (in mM): 140 KCl, 5 NaCl, 1 CaCl2, 1 MgCl2, 10 HEPES, and 10 EGTA, pH 7.2 adjusted with KOH. […] Astrocytic resting membrane potentials were recorded under current‐clamp conditions (I = 0 pA) using standard internal and external solutions, determined immediately after achieving whole‐cell mode."}, "Kir4.1 T128A": {"target": "T2, Kir4.1 T128A (Homo sapiens, UniProt P78508, T128A)", "T2 construct": "expressed in transfected cells; host or cells: CHO-K1", "T2 sequence (P78508 1-379 T128A)": "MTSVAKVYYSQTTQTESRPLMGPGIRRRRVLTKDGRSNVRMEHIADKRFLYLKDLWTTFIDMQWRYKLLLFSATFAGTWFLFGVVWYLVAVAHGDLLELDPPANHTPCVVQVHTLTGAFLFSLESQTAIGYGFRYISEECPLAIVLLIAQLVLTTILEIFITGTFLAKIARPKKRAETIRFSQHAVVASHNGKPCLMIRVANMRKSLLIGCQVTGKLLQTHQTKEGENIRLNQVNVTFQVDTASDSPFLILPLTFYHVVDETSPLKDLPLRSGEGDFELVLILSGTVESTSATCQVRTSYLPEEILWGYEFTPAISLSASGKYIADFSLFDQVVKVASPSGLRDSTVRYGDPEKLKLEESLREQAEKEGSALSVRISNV", "assay": "Whole-cell patch clamp, Kir4.1 point mutant T128A", "format": "cell-based", "experimental": "as §1\nCHO‐K1 cells were maintained in DMEM/F12 growth medium containing 10% fetal bovine serum. Plasmids encoding the target genes (3600 ng) and enhanced green fluorescent protein (400 ng) were cotransfected into cells using Lipofectamine 2000 (Invitrogen) in accordance with the manufacturer's instructions. Cells were seeded onto poly‐d‐lysine (PDL)‐coated glass coverslips 1 h prior to electrophysiological recordings. All cells were cultured under standard conditions of 5% CO2 at 37 °C.\n(§2) Whole‐cell patch‐clamp recordings were obtained either in transiently transfected CHO‐K1 cells or in primary cultured astrocytes at room temperature using standard patch‐clamp techniques with an Axopatch‐700B amplifier (Axon Instruments). The signals were filtered at 2 kHz and sampled at 20 kHz using the Digidata 1440A interface (Axon Instruments). The resistance of borosilicate glass pipettes was typically 2–4 MΩ when filled with the internal solution. Drug application was facilitated using a BPS perfusion system (ALA Scientific Instruments). Macroscopic currents generated by expressed potassium channels were recorded under the voltage‐clamp conditions with an internal pipette solution composed of (in mM): 140 KCl, 5 NaCl, 1 CaCl2, 1 MgCl2, 10 HEPES, and 10 EGTA, pH 7.2 adjusted with KOH. The external solution contained (in mM): 140 NaCl, 5 KCl, 2 CaCl2, 1 MgCl2, 10 glucose, and 10 HEPES, pH 7.4 adjusted with NaOH. Currents were elicited with a hyperpolarized voltage at −120 mV from the holding potential of −80 mV, followed by a ramp voltage depolarizing to +50 mV. Astrocytic resting membrane potentials were recorded under current‐clamp conditions (I = 0 pA) using standard internal and external solutions, determined immediately after achieving whole‐cell mode."}, "[1]": {"target": "T3, DAT (dopamine transporter) (Homo sapiens, UniProt Q01959)", "T3 construct": "expressed in transfected cells", "T3 sequence (Q01959 whole entry)": "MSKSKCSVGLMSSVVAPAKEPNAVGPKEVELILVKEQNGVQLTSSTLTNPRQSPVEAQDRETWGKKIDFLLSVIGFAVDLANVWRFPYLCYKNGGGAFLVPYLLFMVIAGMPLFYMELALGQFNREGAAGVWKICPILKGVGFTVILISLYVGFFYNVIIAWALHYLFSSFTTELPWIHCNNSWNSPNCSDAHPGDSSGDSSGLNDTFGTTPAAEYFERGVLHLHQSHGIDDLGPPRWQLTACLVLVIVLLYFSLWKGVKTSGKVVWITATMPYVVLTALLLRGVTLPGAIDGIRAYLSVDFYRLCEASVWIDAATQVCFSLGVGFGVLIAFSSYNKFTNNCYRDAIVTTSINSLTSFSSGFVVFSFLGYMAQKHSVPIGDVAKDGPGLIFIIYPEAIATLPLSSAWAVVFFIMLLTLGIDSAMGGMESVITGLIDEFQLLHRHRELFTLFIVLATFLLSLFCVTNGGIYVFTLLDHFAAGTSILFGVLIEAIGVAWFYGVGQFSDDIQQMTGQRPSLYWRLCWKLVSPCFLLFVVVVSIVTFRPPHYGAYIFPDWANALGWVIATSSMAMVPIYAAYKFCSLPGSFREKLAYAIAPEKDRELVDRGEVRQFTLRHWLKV", "assay": "DAT functional assay (fluorescent neurotransmitter transporter uptake)", "format": "cell-based", "set-up": "DAT inhibition, replicates: unit not given here", "experimental": "The 5‐HTT/DAT functional assays were commissioned by Elsevier Science and Technology Co., Ltd. (Beijing). A fluorescence‐based neurotransmitter assay was conducted using a Neurotransmitter Transporter Uptake Assay Kit (Molecular Devices, R8174), according to the manufacturer's protocol. Flp‐in T‐rex 293 cells transiently expressing the human norepinephrine transporter and HEK293 cells stably expressing the human dopamine or serotonin transporters were seeded in PDL‐coated 384‐well plates and incubated overnight. Subsequently, the medium was removed, and the cells were treated with 16 µL of compounds diluted in assay buffer for 0.5 h at 37 °C. Centanafadine and 0.1% DMSO served as positive and negative controls, respectively. Then, 16 µL of dye mix prepared in 1× Hanks’ Balanced Salt Solution was added to each well and incubated at 37 °C for 1 h. Finally, the data point was acquired via a fluorescence plate reader with excitation at 450 nm and emission at 528 nm."}, "[2]": {"tested_on": "primary cortical astrocytes (native Kir4.1 channels)", "assay": "Patch clamp of primary cultured WT astrocytes (native Kir4.1)", "format": "cell-based, mouse", "experimental": "Astrocytes were isolated and cultured as previously described.^[ [16] ^] Briefly, the cortices from P1‐P4 mouse pups were dissected and incubated for 25 min in Hank's Balanced Salt Solution (22.5 ml) with 2.5% trypsin (2.5 ml) at 37 °C. Cells were dissociated in cultured medium (DMEM/F12 supplemented with 10% fetal bovine serum and 1% penicillin and streptomycin) and filtered with a 70‐µm cell strainer. Cell suspensions were cultured in PDL‐pretreated 75‐cm^2 flasks for the initial seven days, with half of the medium replaced every 2 days. Subsequently, the cultures were shaken at 220 rpm for 6 h at 37 °C to remove microglia and oligodendrocytes from the astrocyte layers. The astrocytes were harvested, reseeded in two new flasks, and cultured in an incubator for 14 days. For Kir4.1 deletion in cell cultures, 4‐OH tamoxifen (final concentration: 1 µM, Felixbio) was added into Kir4.1^flox/flox: Aldh1l1‐Cre/ERT2 cortical cultures at DIV 2 and DIV 4, respectively, and completely removed at DIV7 when astrocytes were reseeded in fresh culture medium.\nas §2"}, "C57BL/6J mice": {"tested_on": "C57BL/6J mice", "assay": "Seizure threshold measurement in 6-Hz seizure test", "format": "in vivo", "set-up": "key to seizure incidence, Multiple dose-6 Hz / seizure incidence, Single dose-6 Hz: % of mice showing seizures", "conditions": "for seizure incidence, Multiple dose-6 Hz / seizure incidence, Single dose-6 Hz: JX3212 10 mpk", "description": "Male C57BL/6J mice were subjected to corneal electroshock stimulation using a Grass S48 stimulator (Grass Technologies) with standardized parameters: frequency, 6 Hz; rectangular pulse width, 0.2 ms; and duration, 3 s. Seizure activity was operationally defined as the occurrence of any of the following behaviors: forelimb clonus, postictal immobility, facial myoclonus, staring behavior, orofacial automatization (chewing/unilateral pawing), or Straub tail posture. […] The seizure incidence was compared between the vehicle‐ and JX3212‐treated groups, with the CS50 threshold calculated as the minimal current intensity required to induce seizures in 50% of the subjects via probit analysis."}}, "note": "Several values for one entry are separate records, joined by “and”; a condition that tells them apart may be missing. Identical values can stand only once. Like-named read-outs stand apart in the source and are kept apart here."}
{"smiles": "c1ccc2c(c1)oc1ccc(Nc3ccnc(NCCCN4CCOCC4)n3)cc12", "note": "[JX3212, N^4-(dibenzo[b,d]furan-2-yl)-N^2-(3-morpholinopropyl)pyrimidine-2,4-diamine]", "values": [{"measurement": "inhibition at 3 µM", "setting": "Kir2.2", "result": "14.3 ± 8.36", "unit": "%"}, {"measurement": "inhibition at 3 µM", "setting": "Kir4.1 T128A; 3 µM, mean ± SEM, read-out: current inhibition, Kir4.1 T128A", "result": "33.9 ± 4.58", "unit": "%"}, {"measurement": "Mutation: T128A inhibition, single recordings", "setting": "Kir4.1 T128A; JX3212 3 µM (Fig 2D)", "result": "37.4256 and 28.9608 and 38.1757"}, {"measurement": "inhibition at 3 µM", "setting": "Kir4.1 T128A; JX3212 3 µM (Fig 2D), read-out: Mutation: T128A inhibition, single recordings", "result": 31.1, "unit": "%"}, {"measurement": "IC50", "setting": "[1]", "result": 5.2, "unit": "µM"}, {"measurement": "DAT inhibition, replicates", "setting": "[1]; concentration 3", "result": "-3.23 and -17.79"}, {"measurement": "DAT inhibition, replicates", "setting": "[1]; concentration 10", "result": "-5 and -8.74"}, {"measurement": "DAT inhibition, replicates", "setting": "[1]; concentration 30", "result": "1.89 and -0.08"}, {"measurement": "DAT inhibition, replicates", "setting": "[1]; concentration 100", "result": "-1.46 and -1.85"}, {"measurement": "DAT inhibition, replicates", "setting": "[1]; concentration 300", "result": "-3.23 and -0.87"}, {"measurement": "DAT inhibition, replicates", "setting": "[1]; concentration 1000", "result": 32}, {"measurement": "DAT inhibition, replicates", "setting": "[1]; concentration 3000", "result": "70.17 and 28.06"}, {"measurement": "DAT inhibition, replicates", "setting": "[1]; concentration 10000", "result": "80.01 and 56.79"}, {"measurement": "DAT inhibition, replicates", "setting": "[1]; concentration 30000", "result": "99.88 and 90.83"}, {"measurement": "DAT inhibition, replicates", "setting": "[1]; concentration 100000 (unit not given)", "result": "110.9 and 109.92"}, {"measurement": "astrocytic resting membrane potential (in words)", "setting": "[2]; JX3212 3 µM, BaCl2 100 µM", "result": "marked depolarization"}, {"measurement": "astrocytic macroscopic slope conductance (in words)", "setting": "[2]; WT astrocytes, 3 µM", "result": "partially impaired the macroscopic slope conductance"}, {"measurement": "astrocytic potassium currents (in words)", "setting": "[2]; WT astrocytes, 3 µM", "result": "notably decreased potassium currents"}, {"measurement": "seizure susceptibility, 6-Hz seizure model (in words)", "setting": "C57BL/6J mice; 10 mg kg−1, single or 14-day consecutive administration", "result": "did not alter seizure susceptibility"}, {"measurement": "seizure incidence, Multiple dose-6 Hz", "setting": "C57BL/6J mice; stimulus 18 mA", "result": 25}, {"measurement": "seizure incidence, Multiple dose-6 Hz", "setting": "C57BL/6J mice; stimulus 20 mA", "result": 50}, {"measurement": "seizure incidence, Single dose-6 Hz", "setting": "C57BL/6J mice; stimulus 20 mA", "result": 22.22}, {"measurement": "seizure incidence, Multiple dose-6 Hz", "setting": "C57BL/6J mice; stimulus 22 mA", "result": 75}, {"measurement": "seizure incidence, Single dose-6 Hz", "setting": "C57BL/6J mice; stimulus 22 mA", "result": 50}, {"measurement": "seizure incidence, Single dose-6 Hz", "setting": "C57BL/6J mice; stimulus 24 mA", "result": 57.14}, {"measurement": "seizure incidence, Multiple dose-6 Hz", "setting": "C57BL/6J mice; stimulus 26 mA", "result": 87.5}, {"measurement": "seizure incidence, Single dose-6 Hz", "setting": "C57BL/6J mice; stimulus 26 mA", "result": 85.71}]}
